Source: patent publication US20250170156A1, “TOLL-LIKE RECEPTOR LIGANDS” (INIMMUNE CORPORATION, priority 2018, published 2025)
Structures can show the parent of a compound that is named as a salt.

Experiments:
[1] = target: T1, hTLR4 (Homo sapiens, UniProt O00206+Q9Y6Y9); assay: HEK hTLR4 NF-κB driven SEAP reporter assay (hTLR4 activation); type: cell-based; conditions: 18 hours
T1 construct: expressed in transfected cells; host or cells: HEK cells expressing hTLR4 and an NF-κB driven SEAP reporter
T1 sequence (O00206 24-839): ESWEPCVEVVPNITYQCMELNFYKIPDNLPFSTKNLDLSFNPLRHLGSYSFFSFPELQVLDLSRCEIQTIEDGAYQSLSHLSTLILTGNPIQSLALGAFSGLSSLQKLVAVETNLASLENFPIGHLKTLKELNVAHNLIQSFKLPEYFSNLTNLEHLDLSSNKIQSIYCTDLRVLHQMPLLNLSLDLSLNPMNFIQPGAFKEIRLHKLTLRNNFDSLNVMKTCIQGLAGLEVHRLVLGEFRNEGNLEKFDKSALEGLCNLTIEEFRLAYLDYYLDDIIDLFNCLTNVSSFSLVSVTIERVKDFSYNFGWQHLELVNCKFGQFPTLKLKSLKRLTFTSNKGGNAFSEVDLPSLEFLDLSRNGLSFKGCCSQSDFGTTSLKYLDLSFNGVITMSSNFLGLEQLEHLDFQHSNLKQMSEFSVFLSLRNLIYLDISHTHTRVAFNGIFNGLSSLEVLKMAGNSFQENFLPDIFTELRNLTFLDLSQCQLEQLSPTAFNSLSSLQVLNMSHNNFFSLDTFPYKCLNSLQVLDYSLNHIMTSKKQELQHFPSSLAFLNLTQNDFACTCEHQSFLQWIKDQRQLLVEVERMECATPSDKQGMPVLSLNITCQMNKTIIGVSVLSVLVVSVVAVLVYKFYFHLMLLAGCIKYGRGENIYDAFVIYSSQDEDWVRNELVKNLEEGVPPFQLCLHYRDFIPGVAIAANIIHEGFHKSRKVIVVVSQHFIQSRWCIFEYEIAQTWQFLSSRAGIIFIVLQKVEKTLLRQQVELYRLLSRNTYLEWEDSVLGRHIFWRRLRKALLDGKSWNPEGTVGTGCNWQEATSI
T1 sequence (Q9Y6Y9 17-160 limits assumed): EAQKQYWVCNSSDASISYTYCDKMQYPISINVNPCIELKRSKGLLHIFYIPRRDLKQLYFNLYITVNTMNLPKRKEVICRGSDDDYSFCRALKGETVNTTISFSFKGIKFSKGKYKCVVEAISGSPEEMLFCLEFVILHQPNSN
Procedure: hTLR4 activation. HEK hTLR4-expressing cells were treated with 100 μM concentration of test compound followed by a 5-fold dilution series. HEK hTLR4-expressing cells also contained an NF-κB driven SEAP reporter and were stimulated with the indicated concentration (FIG. 1A-1C) of the test compound for 18 hours followed by assessment of the cellular supernatant for SEAP by a Quantikine SEAP assay (InvivoGen). The SEAP assay was used to look at secretion of the NF-κB driven alkaline-phosphatase reporter gene in response to TLR4 activation by the compounds and results are interpreted both in terms of potency of the compounds to induce SEAP activation (i.e. potency where a lower EC50 indicates higher potency) and efficacy for receptor activation (i.e. maximal SEAP induction).

[2] = system: primary hPBMCs; assay: Induction of RANTES from primary hPBMCs (ELISA)
[3] = system: hMM6 cells; assay: Induction of MIP-1β cytokine from hMM6 cells (ELISA); type: cell-based; conditions: Homo sapiens, 18 hours
Procedure: Induction of […] cytokine from hMM6 cells. The compounds were next tested in the established MM6 potency assay measuring MIP-1β cytokine production as an output measure of compound potency. Human monocytic cell line, Mono-Mac-6 (hMM6) was obtained from DSMZ (Brunswick, Germany). […] Treatments started at a 100 µM concentration proceeded with a 16-point, 5-fold dilution series. Supernatants were harvested and analyzed for production of MIP-1β via ELISA (R&D systems, catalog #DY271).

[4] = system: primary hPBMCs; assay: Induction of MIP-1β from primary hPBMCs (ELISA)
[5] = system: mRAW264.7 cells; assay: Induction of MIP-1β cytokine from mRAW264.7 cells (ELISA); type: cell-based; conditions: Mus musculus, 18 hours, read-out: mRaw MIP-1β EC50
Procedure: Induction of MIP-1β cytokine from mRAW264.7 cells. […] Treatments started at 20 μM concentration with a 5-fold serial dilution until 3.2768E-09 μM. Supernatants were harvested and analyzed for production of MIP-1β via ELISA (R& D Systems-cat #DY451).

[6] = Stability of aqueous formulations by reverse-phase-HPLC; type: physicochemical; conditions: 40° C.; formulated in 2.5% glycine (FIGS. 9, 12)
Procedure: Formulation. The salted compound was accurately weighed into depyrogenated glass vials, and the required volume of aqueous vehicle added to attain the desired concentration. Vials were placed in a sonication bath (sonication bath temperature≤45° C.) to assist solubility and reduce particle size to achieve sterile filtration without significant loss of compound. Once the solution appeared homogeneous, the particle size was periodically monitored by dynamic light scattering until the solution turned clear and the particle size was <200 mn, or the particle size no longer reduced with continued sonication. The formulation was filtered through a 0.22p PVDF membrane filter into a depyrogenated glass vial and the resulting solution quantitated by RP-HPLC.
Aqueous formulations of compounds 1, 2, 3, 4, 5 and 6 were aliquoted into small depyrogenated vials for stability evaluation at temperatures of 2°-8° C., 25° C., and 40° C. This mirrors ICH stability temperature guidelines, but humidity was not controlled. A vial was pulled for each time point/temperature and analyzed by reverse-phase-HPLC (FIGS. 9-14) according to the following schedule starting from 2 weeks to up to 12 months.

[7] = system: influenza virus antigen A/Victoria/210/2009-H3N2; assay: Vaccine adjuvant study, murine influenza virus vaccination model; type: in vivo, BALB/c mice; conditions: intramuscular, 0.1, 0.01 or 0.001 μg with 0.2 μg antigen, 14 days after single immunization, 2% glycine
Procedure: Vaccine adjuvant study. Compounds 2, 4, 5 and 7 were evaluated as vaccine adjuvant in a murine influenza virus vaccination model. 7-9 week old BALB/c mice (10 mice per group) were injected intramuscularly in a hind limb with the influenza virus antigen A/Victoria/210/2009-H3N2 (0.2 μg/mouse) with or without 0.1, 0.01 or 0.001 μg of compound 2, 4, 5 or 7 (formulated in 2% glycine). Fourteen days after a single immunization, animals were bled via the submandibular vein and serum was collected to assay for A/Victoria specific antibodies by ELISA assay (FIG. 7).

[8] = Homo sapiens, read-out: hPBMCs EC50 RANTES, Table 3a, Average of Donors 10, 5, 2
[9] = Homo sapiens, read-out: hPBMCs EC50 RANTES, Table 3a, Donor 2
[10] = Homo sapiens, read-out: hPBMCs EC50 RANTES, Table 3a, Donor 5
[11] = Homo sapiens, read-out: hPBMCs EC50 RANTES, Table 3a, Donor 10
[12] = Homo sapiens, read-out: hPBMCs EC50 MIP-1β, Table 3a, Average of Donors 10, 5, 2
[13] = Homo sapiens, read-out: hPBMCs EC50 MIP-1β, Table 3a, Donor 2
[14] = Homo sapiens, read-out: hPBMCs EC50 MIP-1β, Table 3a, Donor 5
[15] = Homo sapiens, read-out: hPBMCs EC50 MIP-1β, Table 3a, Donor 10
[16] = Homo sapiens, read-out: hPBMCs EC50 RANTES, Table 4b, Average of Donors 22, 5
[17] = Homo sapiens, read-out: hPBMCs EC50 RANTES, Table 4b, Donor 5
[18] = Homo sapiens, read-out: hPBMCs EC50 RANTES, Table 4b, Donor 22
[19] = Homo sapiens, read-out: hPBMCs EC50 MIP-1β, Table 4b, Average of Donors 22, 5
[20] = Homo sapiens, read-out: hPBMCs EC50 MIP-1β, Table 4b, Donor 5
[21] = Homo sapiens, read-out: hPBMCs EC50 MIP-1β, Table 4b, Donor 22
[22] = Homo sapiens, read-out: hPBMCs EC50 RANTES, Table 4c, one donor
[23] = Homo sapiens, 96 h, read-out: hPBMCs EC50 MIP-1β, Table 4d, one donor

Compound | EC50 ([1]; Table 1a) [nM] | EC50 [2, 8] [nM] | EC50 [2, 9] [nM] | EC50 [2, 10] [nM] | EC50 [2, 11] [nM] | EC50 [3] [nM] | EC50 [4, 12] [nM] | EC50 [4, 13] [nM] | EC50 [4, 14] [nM] | EC50 [4, 15] [nM] | EC50 [5] [nM] | EC50 ([1]; Table 1b) [nM] | EC50 [2, 16] [nM] | EC50 [2, 17] [nM] | EC50 [2, 18] [nM] | EC50 [4, 19] [nM] | EC50 [4, 20] [nM] | EC50 [4, 21] [nM] | adjuvant effect on flu-specific IgG2a antibody titers compared to antigen alone [7] | further results
CCCCCCCCCCC[C@H](CC(=O)N[C@H]1[C@H](OC[C@H](NC(=O)C[C@@H](CCCCCCCCCCC)OC(=O)CCCCCCCCC)C(=O)OC)O[C@H](CO)[C@@H](OP(=O)(O)O)[C@H]1NC(=O)C[C@@H](CCCCCCCCCCC)OC(=O)CCCCCCCCC)OC(=O)CCCCCCCCC [Compound 3, N—[(R)-3-Decanoyloxytetradecanoyl]-O-[2,3-di-[(R)-3-decanoyloxytetradecanoylamino]-2,3-dideoxy-4-O-phosphono-β-D-allopyranosyl]-L-serine methyl ester] | 3.95 | 0.0719 | 0.0158 | 0.158 | 0.0417 | 0.462 | 0.0478 | 0.0314 | 0.0727 | 0.0394 | 0.0112 | – | – | – | – | – | – | – | – | –
CCCCCCCCCCC[C@H](CC(=O)NCCO[C@@H]1O[C@H](CO)[C@@H](OP(=O)(O)O)[C@@H](NC(=O)C[C@@H](CCCCCCCCCCC)OC(=O)CCCCCCCCC)[C@H]1NC(=O)C[C@@H](CCCCCCCCCCC)OC(=O)CCCCCCCCC)OC(=O)CCCCCCCCC [Compound 1, 2-[(R)-3-decanoyloxytetradecanoylamino]ethyl 2,3-di-[(R)-3-decanoyloxytetradecanoylamino]-2,3-dideoxy-4-O-phosphono-β-D-allopyranoside] | 13.7 | 0.0205 | 0.0121 | 0.0254 | 0.0239 | 0.251 | 0.0214 | 0.0198 | 0.0241 | 0.0202 | 0.0576 | 19.7 | 0.135 | 0.0899 | 0.179 | 0.18 | 0.0761 | 0.285 | – | time with no degradation [6]: 6 weeks
CCCCCCCCCCC[C@H](CC(=O)NCCO[C@@H]1OC(CO)[C@@H](OP(=O)(O)O)C(NC(=O)C[C@@H](CCCCCCCCCCC)OC(=O)CCCCCCCc2ccccc2)C1NC(=O)C[C@@H](CCCCCCCCCCC)OC(=O)CCCCCCCCC)OC(=O)CCCCCCCCC (stereo partly drawn) [Compound 9, 2-[(R)-3-decanoyloxytetradecanoylamino]ethyl, 2-[(R)-3-decanoyloxytetradecanoylamino]-3-[(R)-3-(8-phenyl)octanoyloxytetradecanoylamino]-2,3-dideoxy-4-O-phosphono-β-D-allopyranoside triethylammonium salt] | – | – | – | – | – | – | – | – | – | – | – | 15.7 | – | – | – | – | – | – | – | EC50 [2, 22]: 0.143 nM; EC50 [4, 23]: 0.182 nM
CCCCCCCCCCC[C@H](CC(=O)NC1C(NC(=O)C[C@@H](CCCCCCCCCCC)OCCCCCCCCCC)[C@H](OP(=O)(O)O)C(CO)O[C@H]1OC[C@H](NC(=O)C[C@@H](CCCCCCCCCCC)OCCCCCCCCCC)C(=O)O)OCCCCCCCCCC (stereo partly drawn) [Compound 4] | 1.32 | 0.0083 | 0.0083 | 0.0081 | 0.0084 | 0.124 | 0.0049 | 0.0059 | 0.0027 | 0.0062 | 0.0014 | 1.39 | 0.0185 | 0.0149 | 0.0221 | 0.0137 | 0.0141 | 0.0133 | dose dependent adjuvant effect | –
N—[(R)-3-Decyloxytetradecanoyl]-O-[2,3-di-[(R)-3-decyloxytetradecanoylamino]-2,3-dideoxy-4-O-methylphosphono-β-D-allopyranosyl]-L-serine triethylammonium salt [Compound 7] | – | – | – | – | – | – | – | – | – | – | – | 0.78 | – | – | – | – | – | – | dose dependent adjuvant effect | EC50 ([2]; read-out: hPBMCs EC50 RANTES, Table 4b, Average of Donors 22, 5): 0.006 nM; EC50 ([2]; read-out: hPBMCs EC50 RANTES, Table 4b, Donor 5): 0.0041 nM; EC50 ([2]; read-out: hPBMCs EC50 RANTES, Table 4b, Donor 22): 0.008 nM; EC50 ([4]; read-out: hPBMCs EC50 MIP-1β, Table 4b, Average of Donors 22, 5): 0.0083 nM; EC50 ([4]; read-out: hPBMCs EC50 MIP-1β, Table 4b, Donor 5): 0.0033 nM; EC50 ([4]; read-out: hPBMCs EC50 MIP-1β, Table 4b, Donor 22): 0.0133 nM
CCCCCCCCCCC[C@H](CC(=O)NC1[C@H](OC[C@H](NC(=O)C[C@@H](CCCCCCCCCCC)OCCCCCCCCCC)C(=O)O)OC(CO)[C@@H](OS(=O)(=O)O)[C@@H]1NC(=O)C[C@@H](CCCCCCCCCCC)OCCCCCCCCCC)OCCCCCCCCCC (stereo partly drawn) [Compound 5, N—[(R)-3-Decyloxytetradecanoyl]-O-[2,3-di-[(R)-3-decyloxytetradecanoylamino]-2,3-dideoxy-4-O-sulfoxy-β-D-allopyranosyl]-L-serine] | – | – | – | – | – | – | – | – | – | – | – | 2.9 | 0.0238 | 0.0156 | 0.0319 | 0.027 | 0.0151 | 0.039 | dose dependent adjuvant effect | –
CCCCCCCCCCC[C@H](CC(=O)NCCO[C@@H]1OC(CO)[C@@H](OP(=O)(O)O)C(NC(=O)C[C@@H](CCCCCCCCCCC)OC(=O)CCCCCCCc2ccccc2)C1NC(=O)C[C@@H](CCCCCCCCCCC)OC(=O)CCCCCCCc1ccccc1)OC(=O)CCCCCCCc1ccccc1 (stereo partly drawn) [Compound 8, 2-[(R)-3-(8-phenyl)octanoyloxytetradecanoylamino]ethyl 2,3-di-[(R)-3-(8-phenyl)octanoyloxytetradecanoylamino]-2,3-dideoxy-4-O-phosphono-β-D-allopyranoside triethylammonium Salt] | – | – | – | – | – | – | – | – | – | – | – | 4.99 | – | – | – | – | – | – | – | EC50 [2, 22]: 0.0391 nM; EC50 [4, 23]: 0.0418 nM
CCCCCCCCCCC[C@H](CC(=O)NCCO[C@@H]1OC(CO)[C@@H](OCP(=O)(O)O)[C@H](NC(=O)C[C@@H](CCCCCCCCCCC)OC(=O)CCCCCCCCC)C1NC(=O)C[C@@H](CCCCCCCCCCC)OC(=O)CCCCCCCCC)OC(=O)CCCCCCCCC (stereo partly drawn) [Compound 6] | – | – | – | – | – | – | – | – | – | – | – | 10.2 | 0.174 | 0.238 | 0.109 | 0.0791 | 0.036 | 0.122 | – | –
